Like-named read-outs stand apart in the source and are kept apart here.
Tests used:
[1] = system: Myzus persicae; assay: Myzus persicae oral test (MYZUPE O); type: in vivo; settings: for Emax at 0.8 ppm / Emax at 4 ppm: MYZUPE O, 5 dat, read-out: % efficacy
Method: Solvent: 100 parts by weight of acetone
(§1) To produce a suitable preparation of active compound, 1 part by weight of active compound is dissolved using the specified parts by weight of solvent and made up with water until the desired concentration is attained.
50 μl of the active compound preparation are transferred into microtitre plates and made up to a final volume of 200 μl with 150 μl of IPL41 insect medium (33%+15% sugar). Subsequently, the plates are sealed with parafilm, which a mixed population of green peach aphids (Myzus persicae) within a second microtitre plate is able to puncture and imbibe the solution through it.
After 5 days, the efficacy in % is determined. 100% means that all the aphids have been killed; 0% means that no aphids have been killed.
Myzus persicae—Oral Test (MYZUPE O)
After 5 or 6 days (dat), the efficacy in % is determined. 100% means that all the aphids have been killed; 0% means that no aphids have been killed.

[2] = system: Myzus persicae; assay: Myzus persicae spray test (MYZUPE), Chinese cabbage leaf discs; type: in vivo; settings: for Emax at 100 g/ha: MYZUPE, 100 g of ai/ha, read-out: % efficacy
Method: Myzus persicae—Spray Test
as §1, with “water containing an emulsifier concentration of 1000 ppm” for “water”, “attained. To produce further test concentrations, the formulation is diluted with emulsifier-containing water.” for “attained.”
Discs of Chinese cabbage leaves (Brassica pekinensis) infested by all stages of the green peach aphid (Myzus persicae) are sprayed with an active compound formulation of the desired concentration.
After 5 or 6 days, the efficacy in % is determined. 100% means that all the aphids have been killed; 0% means that no aphids have been killed.
Myzus persicae—Spray Test (MYZUPE)
Discs of Chinese cabbage leaves (Brassica pekinensis) infested by all stages of the green peach aphid (Myzus persicae) are sprayed with an active compound preparation of the desired concentration.
After the desired period of time, the efficacy in % is determined. 100% means that all the aphids have been killed; 0% means that no aphids have been killed.

[3] = log P by HPLC on reversed-phase columns (OECD Guideline 117), neutral range; type: physicochemical; settings: for chromatographic logP: reversed-phase (C18) HPLC column
[4] = after 5 days, application rate 20 ppm
[5] = after 6 days, application rate 500 g/ha
[6] = after 5 days, application rate 500 g/ha
[7] = after 5 days, application rate 4 ppm

Compound | LogP-neutral ([3]; pH 7.8) | efficacy [1, 4] [%] | efficacy [2, 6] [%] | further results
Cc1nc(C(=O)Nc2cccnc2)c[nH]1 [Comparative Ex. 1, reference compound] | – | – | – | Emax at 0.8 ppm ([1]; Myzus persicae, po, 120 h): 0%; Emax at 4 ppm ([1]; Myzus persicae, po, 120 h): 0%; Emax at 100 g/ha ([2]; Myzus persicae, foliar, 5/6 dat): 0%
O=C(Nc1cccnc1)c1c[nH]cn1 [Comparative Ex. 2, reference compound] | – | – | – | Emax at 0.8 ppm ([1]; Myzus persicae, po, 120 h): 0%; Emax at 4 ppm ([1]; Myzus persicae, po, 120 h): 0%; Emax at 100 g/ha ([2]; Myzus persicae, foliar, 144 h, 6 dat): 0%
CN(C(=O)c1cnc(Oc2ccccc2Cl)n1C)c1cccnc1 [Example II-13] | – | 100 | – | LogP-neutral ([3]; HPLC, neutral range pH 7.8): 1.94; efficacy [2, 5]: 100%
CN(C(=O)c1cnc(Oc2ccccn2)n1C)c1cccnc1 [Example II-16] | – | 100 | – | LogP-neutral ([3]; HPLC, neutral range pH 7.8): 1.13
CN(C(=O)c1cnc(OCc2ccc(F)cc2)n1C)c1cccnc1 [Example II-18] | – | 100 | – | efficacy [2, 5]: 100%
CN(C(=O)c1cnc(Oc2ccc(Cl)c(Cl)c2)n1C)c1cccnc1 [Example II-28] | – | 90 | 100 | LogP-neutral ([3]; HPLC, neutral range pH 7.8): 2.57
CCOc1ncc(C(=O)N(CC)c2cccnc2)n1C [Example II-48] | 1.45 | 100 | 90 | –
CN(C(=O)c1cnc(Oc2ccc(Oc3ccc(F)nc3)nc2)n1C)c1cccnc1 [Example II-49] | 1.86 | 100 | 90 | –
CN(C(=O)c1cnc(Oc2ccc(Oc3ccc(Oc4ccc(F)nc4)nc3)nc2)n1C)c1cccnc1 [Example II-50] | 2.3 | 100 | 90 | –
CCN(C(=O)c1cnc(Oc2ccc(Oc3ccc(Cl)nc3)nc2)n1C)c1cccnc1 [Example II-51] | 2.26 | 100 | 100 | –
Cc1ccncc1Oc1ncc(C(=O)N(C)c2cccnc2)n1C [Example II-53] | – | 100 | 90 | LogP-neutral ([3]; HPLC, neutral range pH 7.8): 1.24
Cc1cncc(Oc2ncc(C(=O)N(C)c3cccnc3)n2C)c1 [Example II-54] | 1.31 | 100 | 90 | –
CN(C(=O)c1cnc(Oc2cccnc2)n1C)c1cccnc1 [Example II-55] | – | 100 | 100 | LogP-neutral ([3]; HPLC, neutral range pH 7.8): 1.08
CN(C(=O)c1cnc(Oc2cncc(C#N)c2)n1C)c1cccnc1 [Example II-62] | – | 100 | 90 | LogP-neutral ([3]; HPLC, neutral range pH 7.8): 1.27
CN(C(=O)c1cnc(Oc2cnc3ccccc3c2)n1C)c1cccnc1 [Example II-63] | – | – | – | chromatographic logP ([3]; HPLC, neutral range pH 7.8, read-out: LogP-neutral): 1.72; Emax at 0.8 ppm ([1]; Myzus persicae, po, 120 h): 90%; Emax at 4 ppm ([1]; Myzus persicae, po, 120 h): 100%; pest or weed control at 20 ppm ([1]; Myzus persicae, po, 120 h, after 5 days, application rate 20 ppm, read-out: efficacy): 100%; Emax at 100 g/ha ([2]; Myzus persicae, foliar, 120 h, 5 dat): 90%; pest or weed control at 500 g/ha ([2]; Myzus persicae, foliar, 120 h, after 5 days, application rate 500 g/ha, read-out: efficacy): 90%
COc1cc(Oc2ncc(C(=O)N(C)c3cccnc3)n2C)cnc1OC [Example II-64] | 1.49 | – | 100 | efficacy [1, 7]: 100%
CN(C(=O)c1cnc(Oc2cccnc2Cl)n1C)c1cccnc1 [Example II-66] | – | 100 | 100 | LogP-neutral ([3]; HPLC, neutral range pH 7.8): 1.45
CN(C(=O)c1cnc(Oc2ccc(Cl)nc2)n1C)c1cccnc1 [Example II-68] | – | 100 | 90 | LogP-neutral ([3]; HPLC, neutral range pH 7.8): 1.45
CN(C(=O)c1cnc(Oc2ccc(Oc3ccc(Cl)nc3)nc2)n1C)c1cccnc1 [Example II-69] | 1.94 | – | – | –
CN(C(=O)c1cnc(Oc2cccc(C#N)c2)n1C)c1cccnc1 [Example II-72] | – | 100 | 90 | LogP-neutral ([3]; HPLC, neutral range pH 7.8): 1.52
CCc1cccc(Oc2ncc(C(=O)N(C)c3cccnc3)n2C)c1 [Example II-75] | – | 100 | 90 | LogP-neutral ([3]; HPLC, neutral range pH 7.8): 2.35
CCCc1cccc(Oc2ncc(C(=O)N(C)c3cccnc3)n2C)c1 [Example II-77] | 2.66 | 90 | 100 | –
CN(C(=O)c1cnc(Oc2cccc(C(F)(F)F)c2F)n1C)c1cccnc1 [Example II-78] | 2.39 | 100 | 100 | –
Cc1cccc(Oc2ncc(C(=O)N(C)c3cccnc3)n2C)c1 [Example II-79] | – | 90 | 90 | LogP-neutral ([3]; HPLC, neutral range pH 7.8): 1.97
CN(C(=O)c1cnc(Oc2ccc(F)c(C(F)(F)F)c2)n1C)c1cccnc1 [Example II-83] | 2.42 | – | 90 | efficacy [1, 7]: 100%
CON=Cc1cccc(Oc2ncc(C(=O)N(C)c3cccnc3)n2C)c1 [Example II-84] | 2.04 | 100 | 90 | –
CCN(C(=O)c1cnc(Oc2cncc(Cl)c2)n1C)c1cccnc1 [Example II-97] | 2.03 | – | – | –
CC(C)Oc1ncc(C(=O)Nc2cccnc2)n1C [II-1-H] | – | – | – | log P[n] ([3]; pH 7.8): 1.61
CN(C(=O)c1cnc(Cl)n1C)c1cccnc1 [IX-1, 2-chloro-N, 1-dimethyl-N-(pyridin-3-yl)-1H-imidazole-5-carboxamide] | – | – | – | chromatographic logP ([3]; pH 7.8, HPLC-MS, neutral, read-out: log P[n]): 0.88
Cn1c(C(=O)Nc2cccnc2)c[nH]c1=O [VI-1-H] | – | – | – | log P[n] ([3]; pH 7.8): 0.1

Continued, in another order:

LogP-neutral ([3]; pH 7.8) | Compound | efficacy [1, 4] [%] | efficacy [2, 6] [%] | further results
0.53 | CN(C(=O)c1cnc(OCc2ncccn2)n1C)c1cccnc1 [Example II-11] | – | – | –
1.75 | CCC(C)Oc1ncc(C(=O)N(C)c2cccnc2)n1C (stereo not drawn) [Example II-20] | 100 | – | efficacy [2, 5]: 100%
1.83 | CN(C(=O)c1cnc(OC2CCCC2)n1C)c1cccnc1 [Example II-21] | 90 | – | efficacy [2, 5]: 90%
2.15 | CN(C(=O)c1cnc(OC2CCCCC2)n1C)c1cccnc1 [Example II-22] | 90 | – | efficacy [2, 5]: 90%
1.5 | COc1ccc(Oc2ncc(C(=O)N(C)c3cccnc3)n2C)cn1 [Example II-39] | 90 | 90 | –
1.26 | Cc1ccc(Oc2ncc(C(=O)N(C)c3cccnc3)n2C)cn1 [Example II-44] | 100 | 90 | –
1.9 | CN(C(=O)c1cnc(Oc2ccc(C(F)(F)F)nc2)n1C)c1cccnc1 [Example II-56] | 100 | 90 | –
1.78 | Cc1cc(Oc2ncc(C(=O)N(C)c3cccnc3)n2C)cnc1Cl [Example II-57] | 100 | 90 | –
1.68 | Cc1cc(Cl)ncc1Oc1ncc(C(=O)N(C)c2cccnc2)n1C [Example II-59] | 100 | 90 | –
1.28 | COc1cncc(Oc2ncc(C(=O)N(C)c3cccnc3)n2C)c1 [Example II-60] | 100 | 90 | –
1.63 | CN(C(=O)c1cnc(Oc2ccc(Br)nc2)n1C)c1cccnc1 [Example II-61] | 90 | 100 | –
1.4 | CN(C(=O)c1cnc(Oc2cnccc2Cl)n1C)c1cccnc1 [Example II-65] | 100 | 100 | –
1.62 | CN(C(=O)c1cnc(Oc2cncc(Br)c2)n1C)c1cccnc1 [Example II-67] | 100 | 100 | –
2.02 | COc1ncc(Cl)cc1Oc1ncc(C(=O)N(C)c2cccnc2)n1C [Example II-70] | 100 | 90 | –
2.1 | CCOc1cccc(Oc2ncc(C(=O)N(C)c3cccnc3)n2C)c1 [Example II-73] | 100 | 90 | –
1.25 | CC(=O)Nc1cccc(Oc2ncc(C(=O)N(C)c3cccnc3)n2C)c1 [Example II-74] | 100 | 90 | –
1.75 | COc1cccc(Oc2ncc(C(=O)N(C)c3cccnc3)n2C)c1 [Example II-76] | – | – | –
1.31 | CN(C(=O)c1cnc(Oc2cccc(S(C)(=O)=O)c2)n1C)c1cccnc1 [Example II-80] | 100 | 100 | –
0.9 | CN(C(=O)c1cnc(OCC(F)(F)F)n1C)c1cccnc1 [Example II-96] | – | – | –

From patent US10647699B2, “Substituted 2-oxyimidazolylcarboxamides as pesticides” (Bayer CropScience Aktiengesellschaft, priority 2016, dated 2020)
